Experimental data reported in patent publication US7608716B2, “Pyrazolonaphthyridine derivative” (Aska Pharmaceutical Co., Ltd., priority 2002, dated 2009).

melting point | Structure (SMILES)
322 °C (dec.) | O=c1c2c(CCc3cccnc3)n[nH]c2c2cccnc2n1-c1ccccc1 [Example 3, 5-phenyl-3-[2-(pyridin-3-yl)ethyl]-1H-pyrazolo[4,3-c][1,8]-naphthyridin-4 (5H)-one]
300 to 305 °C | NC(=O)Nc1ccccc1CCc1n[nH]c2c1c(=O)n(-c1ccccc1)c1ncccc21 [Example 50, 5-phenyl-3-[2-(2-ureidophenyl)ethyl]-1H-pyrazolo[4,3-c][1,8]naphthyridin-4 (5H)-one]
> 310 °C | Nc1ccc(CCc2n[nH]c3c2c(=O)n(-c2ccccc2)c2ncccc32)cc1 (hydrate or solvate) [Example No. 13, 3-[2-(4-aminophenyl)ethyl]-5-phenyl-1H-pyrazolo[4,3-c][1,8]naphthyridin-4 (5H)-one]
316 to 318 °C (dec.) | N#Cc1ccc(Cc2n[nH]c3c2c(=O)n(-c2ccccc2)c2ncccc32)cc1 (hydrate or solvate) [Example 31, 3-(4-cyanobenzyl)-5-phenyl-1H-pyrazolo[4,3-c][1,8]naphthyridin-4 (5H)-one]
261 to 263 °C | Nc1cccc(-n2c(=O)c3c(CCc4ccncc4)n[nH]c3c3cccnc32)c1 [Example 8, 5-(3-aminophenyl)-3-[2-(pyridin-4-yl)ethyl]-1H-pyrazolo[4,3-c][1,8]naphthyridin-4 (5H)-one]
159 to 161 °C | O=C(O)c1cccc(CCc2n[nH]c3c2c(=O)n(-c2ccccc2)c2ncccc32)c1 [Example 38, 3-[2-(3-carboxyphenyl)ethyl]-5-phenyl-1H-pyrazolo[4,3-c][1,8]naphthyridin-4 (5H)-one]
300 to 302 °C | COc1ccc(Cc2n[nH]c3c2c(=O)n(-c2ccccc2)c2ncccc32)cc1 (hydrate or solvate) [Example No. 21, 3-(4-methoxybenzyl)-5-phenyl-1H-pyrazolo[4,3-c][1,8]naphthyridin-4 (5H)-one]
333 to 335 °C | O=c1c2c(CCc3ccccc3[N+](=O)[O-])n[nH]c2c2cccnc2n1-c1ccccc1 (hydrate or solvate) [Example 16, 3-[2-(2-nitrophenyl)ethyl]-5-phenyl-1H-pyrazolo[4,3-c][1,8]naphthyridin-4 (5H)-one]
318 to 320 °C (dec.) | O=c1c2c(Cc3ccccc3[N+](=O)[O-])n[nH]c2c2cccnc2n1-c1ccccc1 (hydrate or solvate) [Example No. 26, 3-(2-nitrobenzyl)-5-phenyl-1H-pyrazolo[4,3-c][1,8]naphthyridin-4 (5H)-one]

More lines, now with the values behind:

Structure (SMILES) | melting point
COc1cccc(Cc2n[nH]c3c2c(=O)n(-c2ccccc2)c2ncccc32)c1 (hydrate or solvate) [Example 20, 3-(3-methoxybenzyl)-5-phenyl-1H-pyrazolo[4,3-c][1,8]naphthyridin-4 (5H)-one] | 234 to 236 °C
COc1ccc(OC)c(Cc2n[nH]c3c2c(=O)n(-c2ccccc2)c2ncccc32)c1 (hydrate or solvate) [Example No. 27, 3-(2,5-dimethoxybenzyl)-5-phenyl-1H-pyrazolo[4,3-c][1,8]naphthyridin-4 (5H)-one] | 248 to 250 °C
N#Cc1cccc(CCc2n[nH]c3c2c(=O)n(-c2ccccc2)c2ncccc32)c1 (hydrate or solvate) [Example 18, 3-[2-(3-cyanophenyl)ethyl]-5-phenyl-1H-pyrazolo[4,3-c][1,8]naphthyridin-4 (5H)-one] | 219.5 to 224.5 °C
O=c1c2c(Cc3ccccc3O)n[nH]c2c2cccnc2n1-c1ccccc1 [Example 42, 3-(2-hydroxybenzyl)-5-phenyl-1H-pyrazolo[4,3-c][1,8]-naphthyridin-4 (5H)-one] | 278 to 280 °C
COc1ccc(Cc2n[nH]c3c2c(=O)n(-c2ccccc2)c2ncccc32)c(OC)c1 (hydrate or solvate) [Example No. 30, 3-(2,4-dimethoxybenzyl)-5-phenyl-1H-pyrazolo[4,3-c][1,8]naphthyridin-4 (5H)-one] | 266 to 267 °C
O=c1c2c(Cc3cccc([N+](=O)[O-])c3)n[nH]c2c2cccnc2n1-c1ccccc1 (hydrate or solvate) [Example 25, 3-(3-nitrobenzyl)-5-phenyl-1H-pyrazolo[4,3-c][1,8]naphthyridin-4 (5H)-one] | > 320 °C
N#Cc1ccccc1CCc1n[nH]c2c1c(=O)n(-c1ccccc1)c1ncccc21 (hydrate or solvate) [Example 17, 3-[2-(2-cyanophenyl)ethyl]-5-phenyl-1H-pyrazolo[4,3-c][1,8]naphthyridin-4 (5H)-one] | 315.5 to 316.5 °C
CCOC(=O)Cc1ccc(Cc2n[nH]c3c2c(=O)n(-c2ccccc2)c2ncccc32)cc1 (hydrate or solvate) [Example No. 32, 3-(4-ethoxycarbonylmethylbenzyl)-5-phenyl-1H-pyrazolo[4,3-c][1,8]naphthyridin-4 (5H)-one] | 263 to 264 °C
COc1cc(Cc2n[nH]c3c2c(=O)n(-c2ccccc2)c2ncccc32)cc(OC)c1 (hydrate or solvate) [Example 29, 3-(3,5-dimethoxybenzyl)-5-phenyl-1H-pyrazolo[4,3-c][1,8]naphthyridin-4 (5H)-one] | 258 to 259 °C
CS(=O)(=O)Nc1ccc(CCc2n[nH]c3c2c(=O)n(-c2ccccc2)c2ncccc32)cc1 [Example 48, 3-[2-(4-methanesulfonylaminophenyl)ethyl]-5-phenyl-1H-pyrazolo[4,3-c][1,8]naphthyridin-4 (5H)-one] | 284 to 285 °C
CS(=O)(=O)c1ccc(Cc2n[nH]c3c2c(=O)n(-c2ccccc2)c2ncccc32)cc1 (hydrate or solvate) [Example 34, 3-(4-methylsulfonylbenzyl)-5-phenyl-1H-pyrazolo[4,3-c][1,8]naphthyridin-4 (5H)-one] | 311.5 to 312.5 °C
O=c1c2c(Cc3cccnc3)n[nH]c2c2cccnc2n1-c1ccccc1 [Example 4, 5-phenyl-3-(pyridin-3-yl)methyl-1H-pyrazolo[4,3-c][1,8]-naphthyridin-4 (5H)-one] | 306 °C (dec.)
O=c1c2c(Cc3cccs3)n[nH]c2c2cccnc2n1-c1ccccc1 (hydrate or solvate) [Example No. 23, 3-(2-thienylmethyl)-5-phenyl-1H-pyrazolo[4,3-c][1,8]naphthyridin-4 (5H)-one] | 282 to 284 °C
O=c1c2c(CCc3cccc([N+](=O)[O-])c3)n[nH]c2c2cccnc2n1-c1ccccc1 (hydrate or solvate) [Example 15, 3-[2-(3-nitrophenyl)ethyl]-5-phenyl-1H-pyrazolo[4,3-c][1,8]naphthyridin-4 (5H)-one] | 245 to 247 °C
O=C(O)c1ccccc1CCc1n[nH]c2c1c(=O)n(-c1ccccc1)c1ncccc21 (hydrate or solvate) [Example 37, 3-[2-(2-carboxyphenyl)ethyl]-5-phenyl-1H-pyrazolo[4,3-c][1,8]naphthyridin-4 (5H)-one] | 302 to 308 °C
O=c1c2c(CCc3ccncc3)n[nH]c2c2cccnc2n1-c1ccccc1 [Example 1, 5-phenyl-3-[2-(pyridin-4-yl)ethyl]-1H-pyrazolo[4,3-c][1,8]-naphthyridin-4 (5H)-one] | 267 to 269 °C
O=C(O)c1ccc(CCc2n[nH]c3c2c(=O)n(-c2ccccc2)c2ncccc32)cc1 (hydrate or solvate) [Example No. 14, 3-[2-(4-carboxyphenyl)ethyl]-5-phenyl-1H-pyrazolo[4,3-c][1,8]naphthyridin-4 (5H)-one] | 318 to 320 °C
